{"source": "patent US20250049776A1", "about": "“AUTOPHAGY INDUCING COMPOUNDS AND USES THEREOF, IN PARTICULAR FOR A SYSTEMIC TREATMENT OF DISEASES AND CONDITIONS” (Samsara Therapeutics Inc., priority 2021, published 2025)", "key": {"[1]": {"test_system": "Human osteosarcoma U20S cells", "assay": "Assay to measure lysosome and autolysosome formation (acidic vesicle formation, LysoView/LysoTracker staining)", "type": "cell-based", "conditions": "Homo sapiens; U2OS cells, concentration of 0.8 μM; read-out: Activity (percentage increase in acidic vesicle formation over the DMSO-treated control), Table 2", "method_in_brief": "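U2OS cells treated with compounds in DMSO for 24 h, then stained 45 min at 37 °C with 1× LysoView 633 or 50 nM LysoTracker Deep Red, with Hoechst nuclear counterstain. Live-cell fluorescence imaging at 37 °C; acidic vesicle formation judged against DMSO-treated control.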"}, "[2]": {"test_system": "U2OS cell line stabling expressing RFP-eGFP-hLC3b", "assay": "Tandem reporter assay (autophagic flux, RFP-only puncta)", "type": "cell-based", "conditions": "Homo sapiens, RFP-only puncta as percentage of DMSO-treated control, 24 hours; for activity at 1 µM: read-out: Autolysosome % DMSO activity (compound concentration of 1 μM); for activity at 10 µM: read-out: Autolysosome % DMSO activity (compound concentration of 10 μM)", "description": "Selected compounds of this invention were also assessed for their ability to stimulate autophagy using a U20S cell line stabling expressing RFP-eGFP-hLC3b (a tandem reporter cell line). During the process of autophagy, the cargo to be degraded is first enveloped by organelles called autophagosomes. These autophagosomes then fuse with lysosomes, causing them to become acidified and their digestive enzymes to become activated. The term “autophagic flux” is used to represent the dynamic process of autophagy: autophagic flux refers to the whole process of autophagy, including autophagosome formation, maturation, fusion with lysosomes, subsequent breakdown and the release of macromolecules back into the cytosol (Zhang X J, Chen S, Huang K X, Le W D. Why should autophagic flux be assessed? Acta Pharmacol Sin. 2013 May; 34(5): 595-9. doi: 10.1038/aps.2012.184. Epub 2013 Mar. 11). Compounds that stimulate autophagic flux stimulate the dynamic process of autophagy (the whole process of autophagy).\nLC3b is a protein found in the membrane of autophagosomes which has been used to generate genetic reporters of autophagy in cells. In these systems a tandem fusion of LC3b is engineered with two fluorescent proteins of different wavelengths: one which is acid sensitive (for example eGFP, which fluoresces green) and the other which is acid insensitive (for example RFP, which fluoresces red). Cells expressing RFP-eGFP-hLC3b can be examined using fluorescent microscopy: the autophagosomes present will fluoresce in both channels (either yellow in an overlay of both channels or puncta that are present in both the individual red and green channels) but the autolysosomes present will fluoresce in the RFP (red) channel only. Using a fluorescent microscope, the number of autophagosomes and autolysosomes can be counted, allowing for the monitoring of both the induction of autophagy (total puncta count) and the rate of autophagic flux (ratio of red-only to red-and-green puncta). The influence of small molecules on autophagy induction and flux can be assessed using this system by comparison to a non-treated control.\nRepresentative Procedure: Human osteosarcoma U2OS cells stably expressing RFP-eGFP-hLC3b were seeded (10,000 cells/well) into a 96-well glass-bottom plate (Cell Carrier Ultra, Perkin Elmer) in DMEM Glutamax media (Gibco) supplemented with 10% Fetal Bovine Serum (FBS) and antibiotics (100 u/ml penicillin, 100 μg/ml streptomycin, Invitrogen), then incubated overnight in a humified atmosphere at 37° C. and 5% CO2. The cells were then treated with the compounds of interest, dissolved in DMSO, in a duplicated 5- or 10-point dose-response. 8 wells were treated with an equivalent volume of DMSO, 4 with 0.3 μM torin-1 as a positive control (MCE) and 4 wells with 0.4 μM torin-1 plus 0.2 μM bafilomycin (MCE) as a control for flux inhibition. The cells were returned to the incubator and the treatment continued for 24 hours. After treatment, the media was aspirated off and the cells fixed with a solution of 4% formaldehyde+1% glutaraldehyde (Sigma) in dPBS (plus magnesium and calcium, Gibco).\nFixation was allowed to proceed for 15 minutes at room temperature then the fixative solution discarded and replaced with PBS (Gibco) plus Hoescht 33342 ([…], Sigma). After 30 minutes the plates were imaged on an Opera Phenix confocal microscope (Perkin-Elmer) using a 40× water objective, collecting using DAPI, mCherry and GFP channels. Cells were detected based upon the staining of their nuclei with DAPI using the Harmony image analysis software (Perkin-Elmer) and the number of autophagosomes (GFP and RFP puncta) and autolysosomes (RFP only puncta) per cell were counted using the spot picking function within the software."}}, "note": "Where a name gives a salt, the structure may show the parent alone.", "data": [{"compound": "CCCN(C(=O)c1csc(-c2cnn(-c3ccccc3)c2)n1)[C@@H]1CCNC1", "note": "[Compound 171, (R)-2-(1-phenyl-1H-pyrazol-4-yl)-N-propyl-N-(pyrrolidin-3-yl)thiazole-4-carboxamide hydrochloride]", "values": [{"measurement": "activation at 0.8 µM", "setting": "[1]", "result": "10 to 30", "unit": "%"}, {"measurement": "activity at 1 µM", "setting": "[2]", "result": 200, "unit": "%"}, {"measurement": "activity at 10 µM", "setting": "[2]", "result": 294, "unit": "%"}]}, {"compound": "CC(C)N(C(=O)c1csc(-c2cnn(-c3ccccc3)c2)n1)C1CCNCC1", "note": "[Compound 163, N-isopropyl-2-(1-phenyl-1H-pyrazol-4-yl)-N-(piperidin-4-yl)thiazole-4-carboxamide hydrochloride]", "values": [{"measurement": "activation at 0.8 µM", "setting": "[1]", "result": "10 to 30", "unit": "%"}, {"measurement": "activity at 1 µM", "setting": "[2]", "result": 144, "unit": "%"}, {"measurement": "activity at 10 µM", "setting": "[2]", "result": 187, "unit": "%"}]}]}
